The assay has as its target T1, CETP (Homo sapiens, UniProt P11597).
T1 sequence (P11597 18-493): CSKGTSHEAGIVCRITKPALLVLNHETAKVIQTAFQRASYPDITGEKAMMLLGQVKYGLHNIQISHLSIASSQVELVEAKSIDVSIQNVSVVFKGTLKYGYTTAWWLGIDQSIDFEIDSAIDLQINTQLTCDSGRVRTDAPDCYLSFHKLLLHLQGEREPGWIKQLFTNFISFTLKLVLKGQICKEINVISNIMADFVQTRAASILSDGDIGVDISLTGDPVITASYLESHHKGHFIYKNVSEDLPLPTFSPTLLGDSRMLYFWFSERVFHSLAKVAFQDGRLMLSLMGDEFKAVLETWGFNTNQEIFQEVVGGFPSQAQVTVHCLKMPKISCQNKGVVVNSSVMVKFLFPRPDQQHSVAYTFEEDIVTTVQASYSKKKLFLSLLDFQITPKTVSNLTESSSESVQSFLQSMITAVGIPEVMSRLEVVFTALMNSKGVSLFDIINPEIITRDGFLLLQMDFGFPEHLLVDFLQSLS
The assay can be described thus: Assay of CETP Inhibition using Purified Components (Reconstituted Buffer Assay). Also noted: made in house; host or cells: CHO cells (serum-free conditioned medium). Particulars: transfer of [3H]CE from HDL to LDL. It counts as biochemical. In a few lines: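 Purified human recombinant CETP from transfected CHO cells was incubated with [^3H]CE-labeled HDL donor and LDL acceptor in Tris pH 7.4/NaCl/EDTA/1% BSA buffer for 2 h at 37 °C. LDL was then precipitated with dextran sulfate/MgCl2, filtered, and counted by liquid scintillation to give IC50 for CE transfer.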

Setting [1] is: Inhibition of CETP activity in reconstituted buffer assay, read-out: IC50.
Where [2] appears, read: IC50, Inhibition of CETP activity in reconstituted buffer assay.

The structures appear in SMILES notation. Read-outs that look alike come from different tables or passages of the source. Some results are limits rather than exact numbers.

As usually defined, the IC50 is the point on the concentration scale where inhibition reaches its midpoint. On to `OC(CN(Cc1ccc(OC(F)(F)F)cc1)c1cccc(C(F)(F)F)c1)C(F)(F)F` (centres unmarked) [Example 54], for which the half-inhibitory concentration (IC50) under setting [1] was found to be 15 µM.

Turning to `OC(CN(Cc1cccc(OC(F)(F)C(F)F)c1)c1cccc(OCc2ccc(C(F)(F)F)cc2)c1)C(F)(F)F` (centres unmarked) [Example 416], the IC50 under setting [1] was 0.51 µM.

Turning to `N#Cc1cccc(N(Cc2cccc(OC(F)(F)C(F)F)c2)CC(O)C(F)(F)F)c1` (centres unmarked) [Example 576, 3-[[[3-(1,1,2,2-tetrafluoroethoxy)phenyl]methyl](3,3,3-trifluoro-2-hydroxypropyl)amino]benzonitrile], the IC50 under setting [1] was determined as 6.4 µM.

Regarding `O=S(=O)(Nc1cccc(N(Cc2cccc(OC(F)(F)C(F)F)c2)CC(O)C(F)(F)F)c1)c1ccc(F)c(Cl)c1` (centres unmarked) [Example 533], the 50% inhibitory concentration (IC50) under setting [1] is over 50 µM.

As to `CCOc1ccc(Oc2cccc(N(Cc3cccc(OC(F)(F)C(F)F)c3)CC(O)C(F)(F)F)c2)cc1` (centres unmarked) [Example 262], the IC50 under setting [1] was determined as 3.7 µM.

With `OC(CN(Cc1cccc(OC(F)(F)C(F)F)c1)c1cccc(Sc2ccncc2)c1)C(F)(F)F` (centres unmarked) [Example 474], the concentration for half-maximal inhibition (IC50) under setting [1] is 6 µM.

On to `Cc1ccc(Cc2cccc(N(Cc3cccc(OC(F)(F)C(F)F)c3)CC(O)C(F)(F)F)c2)cc1` (centres unmarked) [Example 517], for which the 50% inhibitory concentration (IC50) under setting [1] was 1.6 µM.

With `COc1cc(OC)c(OC)cc1CN(CC(O)C(F)(F)F)c1cccc(OC(F)(F)F)c1` (centres unmarked) [Example 354], the IC50 under setting [1] is over 100 µM.

With `Cc1cccc(CN(CC(O)C(F)(F)F)c2ccccc2C)c1` (centres unmarked) [Example 27], the IC50 under setting [1] is over 100 µM.

As for `OC(CN(Cc1cccc(F)c1)c1cccc(C(F)(F)F)c1)C(F)(F)F` (centres unmarked) [Example 46], under setting [1], the IC50 is over 100 µM.

As for `CC(=O)c1ccc(S(=O)(=O)c2cccc(N(Cc3cccc(OC(F)(F)C(F)F)c3)CC(O)C(F)(F)F)c2)cc1` (centres unmarked) [Example 486], the half-maximal inhibitory concentration (IC50) under setting [1] worked out at 10 µM.

Regarding `OC(CN(Cc1cccc(OC(F)(F)C(F)F)c1)c1cccc(Oc2ccc(Cl)c(Cl)c2)c1)C(F)(F)F` (centres unmarked) [Example 256], the IC50 under setting [1] is 0.079 µM.

In the case of `OC(CN(Cc1cccc(-c2ccncc2)c1)c1cccc(Oc2ccccc2)c1)C(F)(F)F` (centres unmarked) [Example 591], under setting [2], the 50% inhibitory concentration (IC50) was 6.2 µM.

`OC(CN(Cc1cccc(OC(F)(F)F)c1)c1ccc(Oc2ccccc2)cc1)C(F)(F)F` (centres unmarked) [Example 133] gave an IC50 under setting [2] of 25 µM.

Consider `OC(CN(Cc1ccc2c(c1)OC(F)(F)C(F)(F)O2)c1cccc(Oc2ccccc2)c1)C(F)(F)F` (centres unmarked) [Example 687], for which, under setting [2], the half-inhibitory concentration (IC50) came to 12 µM.

Consider `COc1ccc(CN(CC(O)C(F)(F)F)c2cccc(OC(F)(F)F)c2)cc1OC` (centres unmarked) [Example 116], for which the half-maximal inhibitory concentration (IC50) under setting [1] stood at 40 µM.

For the compound `OC(CN(Cc1cccc(Oc2ccccc2)c1)c1ccccc1-c1ccccc1)C(F)(F)F` (centres unmarked) [Example 85], the 50% inhibitory concentration (IC50) under setting [1] turned out to be 80 µM.

In the case of `COC(=O)c1ccc(CN(CC(O)C(F)(F)F)c2cccc(OC(F)(F)F)c2)cc1` (centres unmarked) [Example 341], the half-inhibitory concentration (IC50) under setting [1] was over 100 µM.

Turning to `OC(CN(Cc1cccc(OC(F)(F)C(F)F)c1)c1cccc(OCc2ccccc2Cl)c1)C(F)(F)F` (centres unmarked) [Example 404], the half-maximal inhibitory concentration (IC50) under setting [1] was 2.1 µM.

Turning to `OC(CN(Cc1cccc(F)c1)Cc1ccccc1C(F)(F)F)C(F)(F)F` (centres unmarked) [compound 188], under setting [1], the 50% inhibitory concentration (IC50) is over 100 µM.

In the case of `CC(=O)c1ccc(Sc2cccc(N(Cc3cccc(OC(F)(F)C(F)F)c3)CC(O)C(F)(F)F)c2)cc1` (centres unmarked) [Example 478], the 50% inhibitory concentration (IC50) under setting [1] was 1.8 µM.

Turning to `OC(CN(Cc1ccc(F)cc1)Cc1ccc(C(F)(F)F)cc1)C(F)(F)F` (centres unmarked) [compound 170], the IC50 under setting [1] is over 100 µM.

On to `Cc1cc(-c2cccc(N(Cc3cccc(OC(F)(F)C(F)F)c3)CC(O)C(F)(F)F)c2)cc(C)c1N(C)C` (centres unmarked) [Example 563], for which the IC50 under setting [1] is over 50 µM.

In the case of `CN(C)CCOc1cccc(N(Cc2cccc(OC(F)(F)C(F)F)c2)CC(O)C(F)(F)F)c1` (centres unmarked) [Example 511], the IC50 under setting [1] is over 50 µM.

`O=C(Nc1ccccc1)Nc1cccc(N(Cc2cccc(OC(F)(F)C(F)F)c2)CC(O)C(F)(F)F)c1` (centres unmarked) [Example 546]: the half-inhibitory concentration (IC50) under setting [1] was over 50 µM.

With `OC(CN(Cc1ccc(C(F)(F)F)cc1)c1cccc(Cl)c1)C(F)(F)F` (centres unmarked) [Example 50], the half-maximal inhibitory concentration (IC50) under setting [1] was found to be 15 µM.

Take `Oc1cccc(N(Cc2cccc(OC(F)(F)C(F)F)c2)CC(O)C(F)(F)F)c1` (centres unmarked) [Example 371, 3-[[[3-(1,1,2,2-tetrafluoroethoxy)phenyl]methyl](3,3,3-trifluoro-2-hydroxypropyl)amino]phenol]: the IC50 under setting [1] worked out at 3.9 µM.

As to `OC(CN(Cc1ccc(OC(F)F)cc1)c1cccc(OC(F)(F)F)c1)C(F)(F)F` (centres unmarked) [Example 323], under setting [1], the IC50 is 9 µM.

`OC(CN(Cc1cccc(OC(F)(F)C(F)F)c1)c1cccc(-c2ccc(Cl)cc2Cl)c1)C(F)(F)F` (centres unmarked) [Example 567]: the IC50 under setting [1] worked out at 0.55 µM.

Take `OC(CN(Cc1cccc(Oc2ccccc2)c1)c1ccc2c(c1)OCO2)C(F)(F)F` (centres unmarked) [Example 130]: under setting [1], the IC50 is 80 µM.

As for `Cc1ccccc1N(Cc1ccc(C(F)(F)F)cc1)CC(O)C(F)(F)F` (centres unmarked) [Example 40], the IC50 under setting [1] was over 100 µM.

For `OC(CN(Cc1cccc(C2CCCC2)c1)c1cccc(Oc2ccccc2)c1)C(F)(F)F` (centres unmarked) [Example 607, 3-[(3-phenoxyphenyl)[[3-cyclopentylphenyl]methyl]amino]-1,1,1-trifluoro-2-propanol], the IC50 under setting [1] is 0.31 µM.

For the compound `OC(CN(Cc1ccc2ccccc2n1)c1cccc(OC(F)(F)F)c1)C(F)(F)F` (centres unmarked) [Example 362], under setting [1], the half-maximal inhibitory concentration (IC50) came out at 45 µM.

Turning to `CC(C)S(=O)(=O)Nc1cccc(N(Cc2cccc(OC(F)(F)C(F)F)c2)CC(O)C(F)(F)F)c1` (centres unmarked) [Example 534], under setting [1], the half-inhibitory concentration (IC50) is over 50 µM.

As to `CC(C)S(=O)(=O)c1cccc(N(Cc2cccc(OC(F)(F)C(F)F)c2)CC(O)C(F)(F)F)c1` (centres unmarked) [Example 482, 3-[[3-[(1-methylethyl)sulfonyl]phenyl][[3-(1,1,2,2-tetrafluoroethoxy)-phenyl]methyl]amino]-1,1,1-trifluoro-2-propanol], under setting [1], the IC50 is 4.8 µM.

For `OC(CN(Cc1cccc(OC(F)(F)C(F)F)c1)c1cccc(OCc2ccc(SC(F)(F)F)cc2)c1)C(F)(F)F` (centres unmarked) [Example 409], the 50% inhibitory concentration (IC50) under setting [1] came out at 0.61 µM.

As to `OC(CN(Cc1cccc(OC(F)(F)F)c1)Cc1cccc(OC(F)(F)F)c1)C(F)(F)F` (centres unmarked) [compound 192], the IC50 under setting [2] was 23 µM.

In the case of `Cc1cccnc1-c1cccc(N(Cc2cccc(OC(F)(F)C(F)F)c2)CC(O)C(F)(F)F)c1` (centres unmarked) [Example 455], the IC50 under setting [1] turned out to be 22 µM.

In the case of `CCCCc1ccc(Oc2cccc(N(Cc3cccc(OC(F)(F)C(F)F)c3)CC(O)C(F)(F)F)c2)cc1` (centres unmarked) [Example 261], the IC50 under setting [1] is 1.7 µM.

With `OC(CN(Cc1cccc(C(F)(F)F)c1)c1cccc(Cl)c1)C(F)(F)F` (centres unmarked) [Example 38], under setting [1], the IC50 worked out at 13 µM.

On to `Cc1cccc(CN(Cc2cccc(F)c2)CC(O)C(F)(F)F)c1` (centres unmarked) [compound 180], for which the IC50 under setting [1] was over 100 µM.

As for `O=C(c1ccccc1)c1cccc(N(Cc2cccc(OC(F)(F)C(F)F)c2)CC(O)C(F)(F)F)c1` (centres unmarked) [Example 579], the 50% inhibitory concentration (IC50) under setting [1] was found to be 1.8 µM.

As to `OC(CN(Cc1cccc(Oc2ccccc2)c1)c1cccc(C(F)(F)F)c1)C(F)(F)F` (centres unmarked) [Example 109], under setting [1], the IC50 was 25 µM.

As to `COc1cccc(CN(CC(O)C(F)(F)F)c2cccc(OC(F)(F)F)c2)c1` (centres unmarked) [Example 121], the IC50 under setting [1] was over 100 µM.

For the compound `O=[N+]([O-])c1cccc(CN(CC(O)C(F)(F)F)c2cccc(Oc3ccccc3)c2)c1` (centres unmarked) [Example 113], the half-inhibitory concentration (IC50) under setting [1] was found to be 20 µM.

For the compound `OC(CN(Cc1cccc(OC(F)(F)C(F)F)c1)c1cccc(SC2CCNCC2)c1)C(F)(F)F` (centres unmarked) [Example 476], under setting [1], the half-inhibitory concentration (IC50) is over 50 µM.

Consider `Cc1ccc(N(Cc2ccc(C(F)(F)F)cc2)CC(O)C(F)(F)F)cc1` (centres unmarked) [Example 37], for which, under setting [1], the concentration for half-maximal inhibition (IC50) was over 100 µM.
